Consider 14 compounds from patent US9850276B2, “Bidentate-binding modulators of LRRK2 and JNK kinases” (THE SCRIPPS RESEARCH INSTITUTE, priority 2013, dated 2017).

The test system of assay [1] is infarct size in rat hearts. Briefly: I/R MI rat model, 30 minutes ischemia and 24 hours reperfusion. As to conditions: 40 mg/kg 3-aminobenzamide; p=0.048. The assay is classed as in vivo. As for the experimental part:
The in vivo efficacy of SR-3306 in anesthetized rats after 30 minutes ischemia and 24 hours reperfusion was evaluated.

The next assay concerns the target JNK3 (Homo sapiens, UniProt P53779). Kind of assay: JNK3 enzyme activity assay. The assay is classed as biochemical. The settings on record: 2-3 determinations; SP600125 from 10 measurements; * n = 2-4.
The target in a further assay is T1, JNK3 39-422 (Homo sapiens, UniProt P53779).
T1 construct: with JNK3 39-422 and measuring fluorescence polarization (FP) changes
T1 sequence (P53779 39-422 isoform P53779-2): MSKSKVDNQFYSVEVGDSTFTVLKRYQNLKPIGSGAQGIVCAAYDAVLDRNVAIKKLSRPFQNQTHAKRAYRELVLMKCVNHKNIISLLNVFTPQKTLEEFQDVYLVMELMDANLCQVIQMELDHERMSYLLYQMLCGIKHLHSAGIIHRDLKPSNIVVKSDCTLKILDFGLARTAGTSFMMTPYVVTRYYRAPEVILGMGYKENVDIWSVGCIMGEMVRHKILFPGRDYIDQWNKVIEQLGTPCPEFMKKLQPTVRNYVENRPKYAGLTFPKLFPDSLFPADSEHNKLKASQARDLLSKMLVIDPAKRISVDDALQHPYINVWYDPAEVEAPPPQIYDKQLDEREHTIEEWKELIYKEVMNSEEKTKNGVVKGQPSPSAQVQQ
Kind of assay: JIP FP displacement assay (TAMRA-JIP-11-mer peptide, fluorescence polarization). The assay is classed as binding. As to conditions: 2-3 determinations; * n = 2-4. From the text: The biochemical assay for JIP displacement is centered on utilizing a TAMRA-JIP-11-mer peptide (TAMRA-RPKRPTTLNLF) with JNK3 39-422 and measuring fluorescence polarization (FP) changes in the presence and absence of small molecule inhibitors. This assay has been established in 96-well and 384-well format in our labs. Unlabeled JIP-peptide (RPKRPTTLNLF, SEQ ID:1) and compound 2 were used as positive controls.
For orientation: In fluorescence polarisation assays a small probe gives low polarisation when free and higher when bound to something large.

Another assay has as its target JNK1 (Homo sapiens, UniProt P45983). Briefly: JNK1 enzyme assay. The assay is classed as biochemical. The settings on record: 2-3 determinations; SP600125 from 10 measurements.
Assay [2] deals with c-jun phosphorylation in H9C2 cardiomyocyte cells. Briefly: In-cell Western detection of c-Jun phosphorylation. The format is cell-based. As to conditions: for IC50: n = 4, read-out: Cell-based p-c-Jun inhibition (IC50). As for the experimental part: The IC50 was calculated to be 2.8±0.5 μM. Standard error is given.
(§1) To analyze the cell activity of compound 6 and its analogs an In-cell Western detection assay was set up where phosphorylation of c-Jun was monitored. […] This finding was corroborated by Western blot analysis in H9C2 and N2a cells (FIG. 7). Considering the reasonably high biochemical kinase selectivity (coupled with its low μM cell potency), compound 6 is believed to be a good in vitro probe molecule for studying the biology and the signal pathways related to JNK/LRRK2 (and mutant LRRK2s).
Table 2, above, presents the inhibition of c-Jun phosphorylation in H9c2 cells for six JNK bidentate inhibitors, compounds 5, 6, 9, 10, 12, and 13.

Assay [3] has as its system SHSY5Y cells transfected with LRRK2:G2019S. Briefly: LRRK2:G2019S-induced ROS generation (Mitosox fluorescence). The format is cell-based, human. The settings on record: 1 μM or 10 μM compound; p<0.05. From the text: (§2) FIGS. 5A, 5B, and 5C, depict the results of assays to determine the protection of LRRK2:G2019S-induced mitochondrial dysfunction and cell death by compound 6. Significance between LRRK2:WT and LRRK2:G2019S are indicated by a single asterisk (p<0.05) (*), while differences between cells expressing LRRK2:G2019S and compound 6 treated cells expressing LRRK2:G2019S are indicated by a double asterisk (p<0.05) (**). Error bars denote standard deviation.
(§3) We next tested if compound 6 was potent in cell-based functional assays that measured reactive oxygen species (ROS) generation, mitochondrial membrane potential (MMP), and cell viability. We had previously shown that JNK inhibition had significant effects on all of these mitochondrial functional parameters in HeLa cells. FIG. 5 presents the effects that compound 6 had on all of these measures in the human dopaminergic SHSY5Y cell line. […] Finally, LRRK2:G2019S-induced cell loss was measured showing ˜50% less viable cells (FIG. 5C). In the presence of 10 μM compound 6, cell viability returned to >95% (p<0.05).

The target in the next assay is LRRK2-G2019S (Homo sapiens, UniProt Q5S007, G2019S). Kind of assay: LRRK2-G2019S enzyme assay (titration). The format is biochemical. The source says:
(§4) Strong inhibition of LRRK2 by compound 6 was also found.

For assay [4], the system named is SHSY5Y cells transfected with LRRK2:G2019S. Kind of assay: LRRK2:G2019S-induced cell loss (cell viability). The format is cell-based. As to conditions: Homo sapiens, SH-SY5Y; 10 μM compound; p<0.05.
Excerpt: as §2, §3

For a further assay, the target named is LRRK2 (Homo sapiens, UniProt Q5S007). Briefly: Enzyme inhibition profiling, panel of 21 kinases. As to conditions: 10 μM inhibitor concentration. The format is biochemical.
Sequence of LRRK2 (Q5S007 whole entry): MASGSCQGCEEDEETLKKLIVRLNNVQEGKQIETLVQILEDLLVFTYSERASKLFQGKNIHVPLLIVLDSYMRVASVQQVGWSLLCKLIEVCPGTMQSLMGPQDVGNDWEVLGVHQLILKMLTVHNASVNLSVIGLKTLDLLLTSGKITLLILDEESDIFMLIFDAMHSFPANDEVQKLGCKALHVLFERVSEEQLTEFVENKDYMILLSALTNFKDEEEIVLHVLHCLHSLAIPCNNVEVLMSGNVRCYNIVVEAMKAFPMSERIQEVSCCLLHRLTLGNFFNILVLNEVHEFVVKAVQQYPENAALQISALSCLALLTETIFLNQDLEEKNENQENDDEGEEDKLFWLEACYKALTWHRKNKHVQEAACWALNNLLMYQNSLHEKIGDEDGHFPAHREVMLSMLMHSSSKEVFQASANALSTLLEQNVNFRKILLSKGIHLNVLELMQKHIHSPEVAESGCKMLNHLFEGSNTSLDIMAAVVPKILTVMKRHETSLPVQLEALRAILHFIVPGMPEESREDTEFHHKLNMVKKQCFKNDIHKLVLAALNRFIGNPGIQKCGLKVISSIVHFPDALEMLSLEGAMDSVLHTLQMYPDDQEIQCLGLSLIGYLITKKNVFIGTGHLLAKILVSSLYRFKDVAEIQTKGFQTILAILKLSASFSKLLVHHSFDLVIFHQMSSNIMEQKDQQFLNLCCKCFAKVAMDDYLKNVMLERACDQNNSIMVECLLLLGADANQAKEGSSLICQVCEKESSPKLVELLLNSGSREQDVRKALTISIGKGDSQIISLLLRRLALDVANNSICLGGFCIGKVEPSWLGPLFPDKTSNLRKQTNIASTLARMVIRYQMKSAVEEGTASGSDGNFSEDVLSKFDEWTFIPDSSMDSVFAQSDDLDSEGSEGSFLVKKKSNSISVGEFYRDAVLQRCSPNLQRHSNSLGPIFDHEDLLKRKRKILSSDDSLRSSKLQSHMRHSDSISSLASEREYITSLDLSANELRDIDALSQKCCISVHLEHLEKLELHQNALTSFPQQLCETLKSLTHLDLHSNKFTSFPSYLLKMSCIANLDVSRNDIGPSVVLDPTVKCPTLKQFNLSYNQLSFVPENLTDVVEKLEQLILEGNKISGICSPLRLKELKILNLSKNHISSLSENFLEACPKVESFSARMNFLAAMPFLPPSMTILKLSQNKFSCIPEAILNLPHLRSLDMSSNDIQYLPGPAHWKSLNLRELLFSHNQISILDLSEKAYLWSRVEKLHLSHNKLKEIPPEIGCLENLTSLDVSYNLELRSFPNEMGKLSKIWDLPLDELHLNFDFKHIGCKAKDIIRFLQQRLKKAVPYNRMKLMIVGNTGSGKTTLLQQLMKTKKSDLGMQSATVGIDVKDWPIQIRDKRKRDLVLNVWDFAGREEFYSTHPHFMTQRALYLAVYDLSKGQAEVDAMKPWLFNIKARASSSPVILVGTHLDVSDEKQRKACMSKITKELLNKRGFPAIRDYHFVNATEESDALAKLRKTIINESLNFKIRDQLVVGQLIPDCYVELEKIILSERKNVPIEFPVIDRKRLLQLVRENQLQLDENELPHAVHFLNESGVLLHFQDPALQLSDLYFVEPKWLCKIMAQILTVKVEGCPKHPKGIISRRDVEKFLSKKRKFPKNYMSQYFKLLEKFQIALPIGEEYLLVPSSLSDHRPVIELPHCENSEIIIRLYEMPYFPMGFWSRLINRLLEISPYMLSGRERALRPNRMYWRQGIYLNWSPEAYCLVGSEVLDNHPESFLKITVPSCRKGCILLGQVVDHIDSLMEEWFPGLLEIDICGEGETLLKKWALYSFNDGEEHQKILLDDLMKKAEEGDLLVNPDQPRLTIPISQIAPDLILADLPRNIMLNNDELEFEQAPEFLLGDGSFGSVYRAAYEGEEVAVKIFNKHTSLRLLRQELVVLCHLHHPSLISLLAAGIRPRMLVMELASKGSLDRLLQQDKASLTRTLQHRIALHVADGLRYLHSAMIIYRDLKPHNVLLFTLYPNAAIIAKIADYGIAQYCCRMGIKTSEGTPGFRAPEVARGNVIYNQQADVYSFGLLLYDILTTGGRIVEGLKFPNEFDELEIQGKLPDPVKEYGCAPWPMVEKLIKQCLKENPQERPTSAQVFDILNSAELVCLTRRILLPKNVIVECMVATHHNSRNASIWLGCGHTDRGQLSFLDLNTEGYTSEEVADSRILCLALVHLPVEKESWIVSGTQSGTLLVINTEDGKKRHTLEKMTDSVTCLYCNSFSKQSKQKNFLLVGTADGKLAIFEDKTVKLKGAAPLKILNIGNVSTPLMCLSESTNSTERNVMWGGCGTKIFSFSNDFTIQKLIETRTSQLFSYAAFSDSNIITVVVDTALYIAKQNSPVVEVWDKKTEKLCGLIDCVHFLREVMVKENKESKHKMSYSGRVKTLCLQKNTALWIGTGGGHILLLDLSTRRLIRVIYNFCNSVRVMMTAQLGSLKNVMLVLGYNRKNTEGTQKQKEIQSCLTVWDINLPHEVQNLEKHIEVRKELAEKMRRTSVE
The next assay deals with JNK3α1 (Homo sapiens, UniProt P53779). Briefly: ATP competitive binding / mechanism of inhibition studies. The format is biochemical. As to conditions: eight concentrations of compound; p<0.05. From the text:
(A) Non-linear least squares fitting of the data using an equation for competitive inhibition at eight concentrations of compound 6. (B) Double reciprocal plots and linear regression of the data shown in A.
The detection method in the JNK3 enzyme assay allows for the detection of a compound that inhibits by a variety of mechanisms including: substrate-site binding, allosteric site binding, and ATP-competitive binding. […] However, if the inhibition of kinase activity by 6 was only through substrate site binding, its IC50 value in JNK3 activity assay should be similar to that in JIP displacement assay. […] One possible interaction besides JIP site binding was ATP hinge binding because the head indazole moiety is a well-known hinge binder.

The next assay addresses CLK1 (Homo sapiens, UniProt P49759). Kind of assay: Enzyme inhibition profiling, panel of 21 kinases. The assay is classed as biochemical.
For assay [5], the system named is c-jun phosphorylation in H9C2 and N2a cells. Kind of assay: Western blot analysis of c-jun phosphorylation. The format is cell-based.
Excerpt: as §1
In general terms: A western blot detects proteins with antibodies after separation by electrophoresis.

For assay [6], the system named is SHSY5Y cells transfected with LRRK2:G2019S. Briefly: LRRK2:G2019S-induced decrease in mitochondrial membrane potential. The format is cell-based, human. The settings on record: 10 μM compound.
Excerpt: as §2, §3

Another assay relates to 96 kinases. Briefly: Ambit binding screen. As to conditions: 10 μM. As for the experimental part:
To augment this we screened an additional 96 kinases at 10 μM in the Ambit binding screen to get a broader sense for the selectivity of this compound. […] Since minimal SAR optimizations have been made on this probe molecule it is believed that high selectivity for this class of inhibitors could easily be achieved by exploiting the bidentate binding character of this class.

A further assay relates to JNKs. Kind of assay: Enzyme inhibition profiling, panel of 21 kinases. The format is biochemical. The settings on record: 10 μM inhibitor concentration.
The target in the next assay is wild-type LRRK2 (Homo sapiens, UniProt Q5S007). Briefly: LRRK2 enzyme assay (titration). The format is biochemical.
Sequence of wild-type LRRK2 (Q5S007 whole entry): as above
Excerpt: as §4

Setting [7] is: Rattus norvegicus, H9c2, H9c2 cells.

A word on the IC50: it is the midpoint of a concentration-inhibition curve. The viability is a read-out of living cells in per cent, often relative to untreated cells. Higher therefore signals less harm to the cells. As usually defined, the inhibition is how much of the control response was suppressed. Low readings indicate a response near the control, high ones a response far below the control.

“And” between values parts separate entries of the source, which are not always exact repeats. Equal values may be shown once. Read-outs that look alike come from different tables or passages of the source. Where a SMILES comes first, the peptide text is derived from it. The star is where a group is joined. X1 = O=C(NCCCCN*)c1ccc(-c2n[nH]c3ccccc23)cc1; X2 = O=C(NCCCN*)c1ccc(-c2n[nH]c3ccccc23)cc1

Sequence of JNK1 (P45983 whole entry): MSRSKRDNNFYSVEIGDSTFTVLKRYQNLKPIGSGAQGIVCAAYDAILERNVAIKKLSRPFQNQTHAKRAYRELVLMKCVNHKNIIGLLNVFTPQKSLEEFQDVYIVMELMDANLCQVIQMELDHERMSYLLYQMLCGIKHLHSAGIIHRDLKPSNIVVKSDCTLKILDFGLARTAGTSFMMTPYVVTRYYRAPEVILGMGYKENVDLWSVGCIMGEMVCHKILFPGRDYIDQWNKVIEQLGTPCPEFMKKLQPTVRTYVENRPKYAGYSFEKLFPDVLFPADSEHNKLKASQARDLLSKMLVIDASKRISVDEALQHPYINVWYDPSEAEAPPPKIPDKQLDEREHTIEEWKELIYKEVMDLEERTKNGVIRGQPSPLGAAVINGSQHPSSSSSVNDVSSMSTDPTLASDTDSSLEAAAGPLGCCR
Sequence of JNK3 (P53779 1-422 isoform P53779-2): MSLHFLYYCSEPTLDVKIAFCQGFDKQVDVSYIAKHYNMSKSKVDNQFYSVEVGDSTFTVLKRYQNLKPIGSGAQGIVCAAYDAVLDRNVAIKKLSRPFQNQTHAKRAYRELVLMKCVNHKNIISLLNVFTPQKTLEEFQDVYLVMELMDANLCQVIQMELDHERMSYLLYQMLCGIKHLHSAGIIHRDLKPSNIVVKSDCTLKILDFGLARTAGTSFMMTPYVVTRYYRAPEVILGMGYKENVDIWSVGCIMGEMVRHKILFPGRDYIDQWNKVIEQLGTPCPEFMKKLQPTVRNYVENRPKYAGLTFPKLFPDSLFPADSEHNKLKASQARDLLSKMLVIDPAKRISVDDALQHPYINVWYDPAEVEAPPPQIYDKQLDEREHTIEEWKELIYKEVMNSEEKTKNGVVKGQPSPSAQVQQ
Sequence of LRRK2-G2019S (Q5S007 whole entry G2019S): as the sequence (Q5S007 whole entry) above, with G2019S counted along it
Sequence of CLK1 (P49759 whole entry): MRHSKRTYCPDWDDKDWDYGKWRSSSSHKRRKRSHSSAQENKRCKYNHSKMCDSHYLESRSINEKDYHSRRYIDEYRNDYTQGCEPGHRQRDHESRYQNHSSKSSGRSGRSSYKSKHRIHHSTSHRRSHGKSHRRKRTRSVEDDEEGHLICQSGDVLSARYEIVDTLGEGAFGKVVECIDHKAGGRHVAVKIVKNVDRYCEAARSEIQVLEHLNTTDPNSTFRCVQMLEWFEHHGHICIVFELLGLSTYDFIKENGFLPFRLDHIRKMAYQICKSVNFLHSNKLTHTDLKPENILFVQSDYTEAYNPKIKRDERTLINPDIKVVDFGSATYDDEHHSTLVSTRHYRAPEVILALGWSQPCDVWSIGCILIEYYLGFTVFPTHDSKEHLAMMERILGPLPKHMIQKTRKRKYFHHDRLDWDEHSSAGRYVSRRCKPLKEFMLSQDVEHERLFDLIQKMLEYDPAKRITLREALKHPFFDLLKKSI
Sequence of JNK3α1 (P53779 1-422 isoform P53779-2): as the sequence (P53779 1-422 isoform P53779-2) above

As for `NC(=O)c1cccc(N)c1` [3-aminobenzamide], the “infarct size (IS)” value in assay [1] is 26±1.5 % of AAR.
In the case of `CC(=O)N[C@@H](CC(C)C)C(=O)N[C@@H](CC(N)=O)C(=O)N[C@@H](CC(C)C)C(=O)NCC(=O)NCC(=O)NCCCNC(=O)c1ccc(-c2n[nH]c3ccccc23)cc1` [Compound 1] (Ac-LNLGG-X2), the IC50 against JNK3 was 37.8 ± 11.8 nM; on JNK3 39-422, 760 nM.
For `CC(C)C[C@H](NC(=O)[C@H](CC(N)=O)NC(=O)[C@@H](N)CC(C)C)C(=O)NCC(=O)NCC(=O)NCCCNC(=O)c1ccc(-c2n[nH]c3ccccc23)cc1` [Compound 2] (H-LNLGG-X2), in that order: 136 ± 35.9 nM and 624 nM.
As for `CC(=O)N[C@@H](CC(C)C)C(=O)N[C@@H](CC(N)=O)C(=O)N[C@@H](CC(C)C)C(=O)NCC(=O)NCCCCNC(=O)c1ccc(-c2n[nH]c3ccccc23)cc1` [Compound 3, (S)—N1-((S)-1-((2-((4-(4-(1H-indazol-3-yl)benzamido)butyl)amino)-2-oxoethyl)amino)-4-methyl-1-oxopentan-2-yl)-2-((S)-2-acetamido-4-methylpentanamido)succinamide] (Ac-LNLG-X1), the IC50 on JNK3 stood at 157 ± 162 nM; at JNK3 39-422, 620 nM; against JNK1 it was 318 ± 11.9 nM.
The like results for `CC(C)CN(CC(=O)NCCCCCCNC(=O)c1ccc(-c2n[nH]c3ccccc23)cc1)C(=O)CNC(=O)c1ccc2c(c1)OCCO2` [Compound 4, N-(2-((2-((6-(4-(1H-indazol-3-yl)benzamido)hexyl)amino)-2-oxoethyl)(isobutyl)amino)-2-oxoethyl)-2,3-dihydrobenzo[b][1,4]dioxine-6-carboxamide] were, in that order, 147 ± 51.6 nM, 907 nM and 685 ± 121 nM.
`CC(C)CN(CC(=O)NCCCCCCNC(=O)c1ccc(-c2n[nH]c3ccccc23)cc1)C(=O)CNC(=O)C1COc2ccccc2O1` (centres unmarked) [Compound 5, N-(2-((2-((6-(4-(1H-indazol-3-yl)benzamido)hexyl)amino)-2-oxoethyl)(isobutyl)amino)-2-oxoethyl)-2,3-dihydrobenzo[b][1,4]dioxine-2-carboxamide]: the IC50 against JNK3 was 63.4 ± 10.4 nM; in [2] (setting [7]), 37400 ± 22300 nM; at JNK3 39-422 it was 363 nM; against JNK1, 164 ± 21.7 nM.
In the case of `COc1ccc2c(c1)CC(C(=O)NCC(=O)N(CC(=O)NCCCCCCNC(=O)c1ccc(-c3n[nH]c4ccccc34)cc1)CC(C)C)CO2` (centres unmarked) [Compound 6, N-(2-((2-((6-(4-(1H-indazol-3-yl)benzamido)hexyl)amino)-2-oxoethyl)(isobutyl)amino)-2-oxoethyl)-6-methoxychroman-3-carboxamide], the IC50 was 12 nM and 11.6 nM against JNK3; 99 nM and ~100 nM against LRRK2-G2019S; 2800 ± 500 nM in assay [2] (setting [7]); around 10000 nM at CLK1 (inferred from 50% inhibition at 10 μM); 336 nM and ~336 nM at JNK3 39-422; 109 ± 6.1 nM at JNK1. The IC50 at wild-type LRRK2 (read-out: wild-type LRRK2 IC50) is 118 nM and ~100 nM. Further, in [3], the ROS levels result is given as “reduced the ROS levels in a statistically significant manner”. Moreover, in [4], the viability at 10 µM is above 95%. In addition, the inhibition at 10 µM at LRRK2 came out at 94%; against CLK1 (10 μM inhibitor concentration), 50%. Further, the “mechanism of inhibition versus ATP” value at JNK3α1 is on record as “competitive inhibitor of ATP”. Besides, in [2] (H9C2 cells), the “concentration from which c-Jun phosphorylation began to be inhibited significantly” value is reported as around 100 nM. Moreover, the “c-jun phosphorylation by Western blot” value in assay [5] is “inhibition of the c-jun phorphorylation”. Further, in assay [6], the “protection against decrease in MMP” value is listed as “returned MMP dissipation to untreated levels”. Besides, the “number of the 96 kinases with greater than 90% binding” value in the assay on 96 kinases was “six”. Besides, the “share of kinases inhibited” value in the assay with 96 kinases was around 5%. The “inhibition of JNKs” value with JNKs is recorded as around 100%.
On to `COc1ccc2c(c1)CC(C(=O)N[C@@H](C)C(=O)N(CC(=O)NCCCCCCNC(=O)c1ccc(-c3n[nH]c4ccccc34)cc1)CC(C)C)CO2` (stereo partly drawn) [Compound 7, N—((S)-1-((2-((6-(4-(1H-indazol-3-yl)benzamido)hexyl)amino)-2-oxoethyl)(isobutyl)amino)-1-oxopropan-2-yl)-6-methoxychroman-3-carboxamide], for which the IC50 against JNK3 came to 127 ± 30.3 nM; on JNK3 39-422, 1050 nM; at JNK1, 154 ± 37.1 nM.
`COc1ccc2c(c1)CC(C(=O)NCC(=O)N(CC(=O)NCCCCCCNC(=O)c1ccc3[nH]ncc3c1)CC(C)C)CO2` (centres unmarked) [Compound 8, N-(6-(2-(N-isobutyl-2-(6-methoxychroman-3-carboxamido)acetamido)acetamido)hexyl)-1H-indazole-5-carboxamide] returned a half-inhibitory concentration (IC50) on JNK3 of 3150 nM.
Turning to `COc1ccc2c(c1)CC(C(=O)N(CC(=O)NCCCCNC(=O)c1ccc(-c3n[nH]c4ccccc34)cc1)CC(C)C)CO2` (centres unmarked) [Compound 9], the IC50 against JNK3 came out at 246 ± 227 nM; in [2] (setting [7]) it was 80400 ± 41400 nM; at JNK3 39-422, 300 ± 187 nM.
In the case of `CC(C)CN(CC(=O)NCCCCNC(=O)c1ccc(-c2n[nH]c3ccccc23)cc1)C(=O)c1ccc2c(c1)OCCO2` [Compound 10], the IC50 was 65 nM against JNK3; 1400 ± 340 nM in assay [2] (H9c2 cells); around 1000 nM in assay [2] (setting [7]); 363 ± 272 nM at JNK3 39-422; 80 nM on wild-type LRRK2 (LRRK2 form not stated, only hit in profiling against 18 kinases at 10 μM, read-out: LRRK2 IC50).
As to `CC(C)CN(CCCCCCNC(=O)c1ccc(-c2n[nH]c3ccccc23)cc1)C(=O)c1ccc2c(c1)OCCO2` [Compound 11], the IC50 against JNK3 was found to be 86 ± 37 nM; at JNK3 39-422 it was 781 ± 7 nM.
On to `CC(C)CN(CC(=O)NCCCCNC(=O)c1ccc(-c2n[nH]c3ccccc23)cc1)C(=O)CNC(=O)c1cccc(Cl)c1` [Compound 12], for which the IC50 against JNK3 turned out to be 184 ± 38 nM; in [2] (setting [7]), 19800 ± 7800 nM; at JNK3 39-422 it was 520 ± 170 nM.
The like results for `CC(C)CN(CC(=O)NCCCCNC(=O)c1ccc(-c2n[nH]c3ccccc23)cc1)CC(C)C` [Compound 13] were, in that order, 374 ± 227 nM, 9600 ± 3000 nM and 1730 ± 635 nM.
